Measurements from US12590309B2, “Reprogramming of lipid metabolism to inhibit T cell senescence and enhance tumor immunotherapy” (Saint Louis University, priority 2019, dated 2026).
Read-outs that look alike come from different tables or passages of the source.

Legend:
[1] = system: B16F10 tumor; test: B16F10 melanoma, Pmel-1 T cell adoptive transfer therapy model in C57BL/6 mice; settings: Pmel-1 T cells pretreated with ATK 0.5 μM 2 hours; ATK 10 mg·kg-1/mouse i.p. day 1, 4, 7, 10
[2] = system: naïve CD4+ and CD8+ T cells co-cultured with nTreg cells; test: SA-β-gal staining, T cell senescence induced by Treg cells; type: cell-based, human; settings: for senescence induction in T cells co-cultured with nTreg cells, lipid supplement: naïve CD4+ T cells, lipids 5 μM or 10 μM, 3 days
[3] = system: naïve T cells; test: SA-β-gal staining of naïve T cells cultured with the substance alone; type: cell-based, human
[4] = system: naïve CD4+ and CD8+ T cells co-cultured with nTreg cells; test: Oil-Red O staining, LD formation in T cells co-cultured with Treg cells; type: cell-based, human
[5] = system: naïve T cells; test: Oil-Red O staining of naïve T cells cultured with the substance alone; type: cell-based, human
[6] = system: naïve CD8+ T cells co-cultured with nTreg cells; test: Lipidomics (ESI-MS/MS) of Treg-induced senescent T cells; type: cell-based, human
[7] = system: cPLA2α; test: cPLA2α, p21 and p53 expression in Treg-treated T cells (western blot, qPCR, flow cytometry); type: cell-based, human
[8] = system: senescent T cells; test: Inflammatory cytokine mRNA by real-time qPCR in responder/senescent T cells; type: cell-based, human
[9] = system: senescent T cells; test: Suppressive activity of senescent T cells, [3H]-thymidine proliferation assay; type: cell-based, human; settings: data not shown
Experimental: Functional proliferation assay. Proliferation assays were performed using a [^3H]-thymidine incorporation assay, as the inventors previously described (Liu et al., 2018; Ye et al., 2014; 2012; Peng et al., 2005; 2007). Naïve CD4+ T cells (1×10^5/well) purified from healthy donors were co-cultured with Treg-treated T cells at a ratio of 10:1 in 200 μl of T cell assay medium containing 2% human AB. After 56 hours of culture, [3H]-thymidine was added at a final concentration of 1 μCi/well, followed by an additional 16 hours of culture. The incorporation of [^3H]-thymidine was measured with a liquid scintillation counter.

[10] = system: MAPK and STAT1/STAT3 signaling; test: Phosphorylation of p38, ERK, STAT1 and STAT3 by flow cytometry in Treg-treated CD4+ T cells; type: cell-based, human; settings: pretreated 24 hours (KU55933 10 μM; MAFP 5 μM), Treg co-culture 3 days
[11] = naïve CD4+ and CD8+ T cells pretreated with inhibitor 24 hours, co-cultured with nTreg 4:1, anti-CD3, 3 days
[12] = anti-CD3 coated plates, 3 days, no Treg cells
[13] = naïve CD4+ and CD8+ T cells pretreated with inhibitor 24 hours, co-cultured with nTreg 4:1, 3 days
[14] = pretreated with inhibitor 24 hours, Treg co-culture
[15] = CD8+ T cells pretreated with inhibitor 24 hours, nTreg co-culture 3 days

In the case of `CCCCC/C=C\C/C=C\C/C=C\C/C=C\CCCC(=O)C(F)(F)F` [ATK], the “anti-tumor immunity and tumor immunotherapy, ATK” value [1] was “enhances anti-tumor immunity and tumor immunotherapy in vivo” and the “senescent (SA-β-gal+) T cell populations induced by Treg cells” value (“senescent … by Treg cells” for short) [2, 11] was “can prevent T cell senescence”.
`CC(C)c1cc(C(C)C)c(CC(=O)NS(=O)(=O)Oc2c(C(C)C)cccc2C(C)C)c(C(C)C)c1` [avasimible] was tested, and the “senescent … by Treg cells” value [2, 11] was “dramatically reduced”, the “cell senescence (SA-β-gal) in naïve T cells, substance alone” value (“cell senescence (SA-β-gal)” below) [3, 12] was “does not induce cell senescence” and the “LD formation (Oil red O+ T cell populations) induced by Treg cells” value (“LD formation … by Treg cells” for short) [4, 13] was “dramatically reduced”. For the same compound, the “LD formation (Oil-red O) in naïve T cells, substance alone” value (“LD formation (Oil-red O)” below) [5, 12] was “does not induce cell senescence and LD formation” and the “total and sub-fractions of CE in senescent T cells” value ([6]; CD8+ T cells pretreated 24 hours, nTreg co-culture 3 days) was “did not significantly down-regulate total and sub-fractions of CE”.
In the case of `CSC[C@H]1O[C@@H](n2cnc3c(N)ncnc32)[C@H](O)[C@@H]1O` [MTA], the “cPLA2α expression in Treg-induced senescent T cells” value (shortened to “cPLA2α expression”) [7, 14] was “dramatically suppressed the enhanced cPLA2α expression”, the “senescent … by Treg cells” value [2, 11] was “prevented senescence induction” and the “cell senescence (SA-β-gal)” value [3, 12] was “did not promote cell senescence”. The “LD formation … by Treg cells” value [4, 13] was “significantly decreased Oil red O+ T cell populations”, the “LD formation (Oil-red O)” value [5, 12] was “did not promote cell senescence and LD formation” and the “CE and PC in senescent T cells” value [6, 15] was “significantly prevented the Treg-induced up-regulation of CE and down-regulation of PC”.
For `C[S+]([O-])c1ccc(-c2nc(-c3ccncc3)c(-c3ccc(F)cc3)[nH]2)cc1` (stereo not shown) [SB203580], the “cPLA2α expression” value [7] was “dramatically suppressed the enhanced cPLA2α expression”, the “senescent … by Treg cells” value [2] was “prevented senescence induction” and the “cell senescence (SA-β-gal)” value [3] was “did not promote cell senescence”. The “LD formation … by Treg cells” value [4] was “significantly decreased Oil red O+ T cell populations”, the “LD formation (Oil-red O)” value [5] was “did not promote cell senescence and LD formation” and the “CE and PC in senescent T cells” value [6] was “significantly prevented the Treg-induced up-regulation of CE and down-regulation of PC”.
With `O=C(O)C(=O)CBr` [3-BrPA] the “secretion of pro-inflammatory cytokines by senescent T cells” value [8] was “significantly decreased” and the “suppressive activity of senescent T cells on proliferation of effector T cells” value [9] was “inhibited their suppressive activity”.
`CCCCCCCCCCCCC/C=C/[C@@H](O)[C@H](CO)NC(C)=O` [Cer, C2-Ceramide] was tested, and the “senescence induction in T cells co-cultured with nTreg cells, lipid supplement” value (“senescence induction” for short) [2] was “markedly prevented senescence induction”.
In the case of Phosphatidylethanolamine [PE], the “senescence induction” value [2] was “markedly prevented senescence induction”.
With `O=c1cc(-c2cccc3c2Sc2ccccc2S3)oc(N2CCOCC2)c1` [KU55933] the “cPLA2α expression” value [7, 14] was “significantly decreased both mRNA and protein expression of cPLA2α”, the “senescent … by Treg cells” value [2, 11] was “dramatically reduced” and the “LD formation … by Treg cells” value [4, 13] was “dramatically reduced”. The “CE and FFA in senescent T cells” value ([6]; CD8+ T cells pretreated with KU55933 (10 μM) 1 day, nTreg co-culture 3 days) was “markedly prevented Treg-induced up-regulation of CE and FFA” and the “phosphorylation of p38, ERK, STAT1 and STAT3 in Treg-treated CD4+ T cells” value [10] was “prevented phosphorylation of MAPKs and STAT1/STAT3”.
In the case of `Cc1ccc(S(=O)(=O)OCC(=O)Nc2ccc(C(=O)O)c(O)c2)cc1` [S3I-201], the “cPLA2α expression” value [7, 14] was “dramatically suppressed the enhanced cPLA2α expression”, the “senescent … by Treg cells” value [2, 11] was “prevented senescence induction” and the “cell senescence (SA-β-gal)” value [3, 12] was “did not promote cell senescence”. For the same compound, the “LD formation … by Treg cells” value [4, 13] was “significantly decreased Oil red O+ T cell populations”, the “LD formation (Oil-red O)” value [5, 12] was “did not promote cell senescence and LD formation” and the “CE and PC in senescent T cells” value [6, 15] was “significantly prevented the Treg-induced up-regulation of CE and down-regulation of PC”.
In the case of Phosphatidylserine [PS], the “senescence induction” value [2] was “markedly prevented senescence induction”.
With `CCCCCCCCCCC[C@@H](C[C@@H]1OC(=O)[C@H]1CCCCCC)OC(=O)[C@H](CC(C)C)NC=O` [orlistat] the “cell senescence (SA-β-gal)” value [3, 12] was “dramatically increased cell senescence” and the “LD formation (Oil-red O)” value [5, 12] was “promoted LD formation”.
With Lysophosphatidylcholine [LPC] the “senescence induction” value [2] was “markedly prevented senescence induction”.
`N#CC(=C(/N)Sc1ccccc1N)/C(C#N)=C(\N)Sc1ccccc1N` [U0126] was tested, and the “cPLA2α expression” value [7] was “dramatically suppressed the enhanced cPLA2α expression”, the “senescent … by Treg cells” value [2] was “prevented senescence induction” and the “cell senescence (SA-β-gal)” value [3] was “did not promote cell senescence”. The “LD formation … by Treg cells” value [4] was “significantly decreased Oil red O+ T cell populations”, the “LD formation (Oil-red O)” value [5] was “did not promote cell senescence and LD formation” and the “CE and PC in senescent T cells” value [6] was “significantly prevented the Treg-induced up-regulation of CE and down-regulation of PC”.
`O=CC[C@@H](O)[C@H](O)[C@H](O)CO` [2-DG] was tested, and the “secretion of pro-inflammatory cytokines by senescent T cells” value ([8]; senescent CD8+ T cells, 3-BrPA (30 μM) or 2-DG (2 mM), additional 1 day) was “significantly decreased” and the “suppressive activity of senescent T cells on proliferation of effector T cells” value [9] was “inhibited their suppressive activity”.
